Structures can show the parent of a compound that is named as a salt.
Legend:
[1] = test system: Escherichia coli (ATCC number: 25922); assay: Phototoxicity test (photodynamic inactivation, CFU count by Miles and Misra); type: cell-based; details: irradiated at 50 mW/cm^2, 210 sec, 390-500 nm, CFU/ml counted after 24 h, median of 3
Experimental: (§1) A sample of the bacterial strain Staphylococcus aureus (ATCC number: 25923) or Escherichia coli (ATCC number: 25922) was taken from a cryogenically frozen culture, isolated on Müller-Hinton agar plates and cultivated under aerobic conditions at 37° C. in an overnight culture. Thereafter, 5 ml of Müller-Hinton liquid medium were inoculated with a smear of the bacterial culture (single colony) and incubated at 37° C. overnight. The bacterial suspension thus obtained was centrifuged at 2500 rpm for 10 min and the bacterial pellet obtained was resuspended in 5 ml of sterile PBS. The optical density of the bacterial suspension for the phototoxicity tests was OD600 nm=0.6, which corresponds to a bacteria count of ˜[…] bacteria per ml. The biochemical analysis and resistance determination of the bacteria were conducted with the VITEK2 system according to the M100-S14 guidelines from the NCCLS (2004).
(§2) 200 μl of a bacterial suspension (bacterial density: 10^8-10^12/ml) were incubated with 200 μl of each of various concentrations of the photosensitizers to be tested at room temperature for 10 min or 30 min. Thereafter, the bacteria were washed twice with distilled water and resuspended in 200 μl of distilled water, and the entire volume was transferred to a 96-well microtiter plate and then irradiated. The photosensitizers used were dissolved in distilled water and various dilution series were prepared (0 μM, 1 μM, 10 μM, 100 μM).
(§3) For sensitization, the Omnicure Series 2000 lamp (Photonics Solutions Inc., Edinburgh, UK) was used, which emits light from a range from 390 nm to 500 nm and has emission maxima Emax at 405 nm and 436 nm. The power applied in each case was 50 mW/cm^2.
(§4) Irradiated and unirradiated samples were used as controls. Likewise run were bacterial suspensions incubated only with photosensitizer (dark control).
(§5) The determination of the colony-forming units (CFU) per ml was conducted by the method published by Miles and Misra (Miles, A A; Misra, S S, Irwin, J O (1938 November). “The estimation of the bactericidal power of the blood.”. The Journal of hygiene 38 (6): 732-49). For this purpose, serial dilutions from 10^−2 to 10^−9 of the corresponding bacterial suspension were prepared. 3×20 μl of each of the corresponding bacterial dilutions were then dripped onto Müller-Hinton plates and incubated at 37° C. for 24 h. Thereafter, the number of surviving colony-forming units (CFU) was determined. Each of the experiments was repeated three times.
(§6) The effectiveness of phototoxicity with respect to bacteria after irradiation was defined according to the following guidelines for hand hygiene in the health sector (Boyce, J. M., and D. Pittet. 2002. Guideline for Hand Hygiene in Health-Care Settings: recommendations of the Healthcare Infection Control Practices Advisory Committee and the HICPAC/SHEA/APIC/IDSA Hand Hygiene Task Force. Infect Control Hosp Epidemiol 23: p. 3-40): • reduction in the CFU/ml by 1 log10 stage ? 90% effectiveness • reduction in the CFU/ml by 3 log10 stages ? 99.9% effectiveness • reduction in the CFU/ml by 5 log10 stages ? 99.999% effectiveness
(§7) For effective inactivation, the decrease of ≧3 log10 stages can therefore be adopted, and S. aureus and E. coli were chosen as examples of representatives from the group of the Gram-positive and Gram-negative bacteria (see Boyce J. M and D. Pittet 2009).

[2] = test system: Staphylococcus aureus (ATCC number: 25923); assay: as above; type: cell-based; details: irradiated at 50 mW/cm^2, 210 sec, 390-500 nm, CFU/ml counted after 24 h, median of 3
Experimental: as §1, §2, §3, §4, §5, §6, §7

Cc1cc2nc3c(=O)[nH]c(=O)nc-3n(CC(OC(=O)C(N)CCCCN)C(OC(=O)C(N)CCCCN)C(COC(=O)C(N)CCCCN)OC(=O)C(N)CCCCN)c2cc1C (centres unmarked)
Required concentration [μM] to achieve a reduction by ≧3log10 stages (decrease by 99.9%), irradiation at 10.5 J/cm^2, E. coli ([1]; incubation 10 min): 10 μM
Required concentration [μM] to achieve a reduction by ≧3log10 stages (decrease by 99.9%), irradiation at 10.5 J/cm^2, S. aureus ([2]; incubation 10 min): 10 μM

Cc1cc2nc3c(=O)n(CCN)c(=O)nc-3n(CCN)c2cc1C [FL-02, 3,10-bis(2′-aminoeth-1′-yl)-7,8-dimethylbenzo[g]pteridine-2,4-dione hydrochloride]
Required concentration [μM] to achieve a reduction by ≧3log10 stages (decrease by 99.9%), irradiation at 10.5 J/cm^2, E. coli ([1]; incubation 10 min): 10 μM
Required concentration [μM] to achieve a reduction by ≧3log10 stages (decrease by 99.9%), irradiation at 10.5 J/cm^2, S. aureus ([2]; incubation 10 min): 10 μM

CC(=O)OCC(OC(C)=O)C(OC(C)=O)C(Cn1c2nc(=O)n(CCC[n+]3ccc(-c4cc[n+](C)cc4)cc3)c(=O)c-2nc2cc(C)c(C)cc21)OC(C)=O.[I-].[I-] (centres unmarked) [FL-08, 1-{3-[7,8-dimethyl-2,4-dioxo-10-(2,3,4,5-tetraacetoxypentyl)-4,10-dihydro-2H-benzo[g]pteridin-3-yl]propyl}methyl-[4,4′]bipyridinyl-1-ium diiodide]
Required concentration [μM] to achieve a reduction by ≧3log10 stages (decrease by 99.9%), irradiation at 10.5 J/cm^2, E. coli ([1]; incubation 10 min): 1 μM
Required concentration [μM] to achieve a reduction by ≧3log10 stages (decrease by 99.9%), irradiation at 10.5 J/cm^2, S. aureus ([2]; incubation 10 min): 1 μM

CCCCn1c2nc(=O)n(CCC[n+]3ccc(-c4cc[n+](C)cc4)cc3)c(=O)c-2nc2cc(C)c(C)cc21.[I-].[I-] [FL-08b, 1-{3-[7,8-dimethyl-2,4-dioxo-10-(butyl)-4,10-dihydro-2H-benzo[g]pteridin-3-yl]-propyl}methyl-[4,4′]bipyridinyl-1-ium diiodide]
Required concentration [μM] to achieve a reduction by ≧3log10 stages (decrease by 99.9%), irradiation at 10.5 J/cm^2, E. coli ([1]; incubation 10 min): 50 μM
Required concentration [μM] to achieve a reduction by ≧3log10 stages (decrease by 99.9%), irradiation at 10.5 J/cm^2, S. aureus ([2]; incubation 10 min): 10 μM

CC[N+](CC)(CC)Cc1cc2c(cc1C)nc1c(=O)n(CCN)c(=O)nc-1n2CCN.Cl.Cl.[Br-] [FL-13, [3,10-bis(2-aminoethyl)-7-methyl-2,4-dioxo-2,3,4,10-tetrahydro-benzo[g]pteridin-8-ylmethyl]triethylammonium bromide dihydrochloride]
Required concentration [μM] to achieve a reduction by ≧3log10 stages (decrease by 99.9%), irradiation at 10.5 J/cm^2, E. coli ([1]; incubation 30 min): 10 μM
Required concentration [μM] to achieve a reduction by ≧3log10 stages (decrease by 99.9%), irradiation at 10.5 J/cm^2, S. aureus ([2]; incubation 30 min): 10 μM

CCCCn1c2nc(=O)n(CC[N+](C)(C)C)c(=O)c-2nc2cc(C)c(C[N+](CC)(CC)CC)cc21.[Br-].[Br-] [FL-15, [10-butyl-3-(2-trimethylammoniumethyl)-7-methyl-2,4-dioxo-2,3,4, 10-tetrahydrobenzo[g]pteridin-8-ylmethyl]triethylammonium dibromide]
Required concentration [μM] to achieve a reduction by ≧3log10 stages (decrease by 99.9%), irradiation at 10.5 J/cm^2, E. coli ([1]; incubation 30 min): 10 μM
Required concentration [μM] to achieve a reduction by ≧3log10 stages (decrease by 99.9%), irradiation at 10.5 J/cm^2, S. aureus ([2]; incubation 30 min): 10 μM

Cc1cc2nc3c(=O)n(CC[N+](C)(C)C)c(=O)nc-3n(CC[N+](C)(C)C)c2cc1C.[I-].[I-] [FL-17, 3,10-bis(2-trimethylammoniumethyl)-7,8-dimethyl-10H-benzo[g]pteridine-2,4-dione dibromide]
Required concentration [μM] to achieve a reduction by ≧3log10 stages (decrease by 99.9%), irradiation at 10.5 J/cm^2, E. coli ([1]; incubation 30 min): 100 μM
Required concentration [μM] to achieve a reduction by ≧3log10 stages (decrease by 99.9%), irradiation at 10.5 J/cm^2, S. aureus ([2]; incubation 30 min): 100 μM

Cc1cc2nc3c(=O)n(CCN)c(=O)nc-3n(CC[N+](C)(C)CCN)c2cc1C.Cl.Cl.[Cl-] [FL-24, (2-aminoethyl)-{2-[3-(2-aminoethyl)-7,8-dimethyl-2,4-dioxo-3,4-dihydro-2H-benzo[g]pteridin-10-yl]ethyl}dimethylammonium chloride dihydrochloride]
Required concentration [μM] to achieve a reduction by ≧3log10 stages (decrease by 99.9%), irradiation at 10.5 J/cm^2, E. coli ([1]; incubation 30 min): >100^(*^) μM
Required concentration [μM] to achieve a reduction by ≧3log10 stages (decrease by 99.9%), irradiation at 10.5 J/cm^2, S. aureus ([2]; incubation 30 min): 10 μM

Cc1cc2nc3c(=O)n(CC[N+](C)(C)C)c(=O)nc-3n(CC[N+](C)(C)CC[N+](C)(C)C)c2cc1C.[Br-].[Br-].[Br-] [FL-26, 3-(2-trimethylammoniumethyl)-10-{2-[(2-trimethylammoniumethyl)dimethyl-ammonium]ethyl}-7,8-dimethyl-10H-benzo[g]pteridine-2,4-dione tribromide]
Required concentration [μM] to achieve a reduction by ≧3log10 stages (decrease by 99.9%), irradiation at 10.5 J/cm^2, E. coli ([1]; incubation 30 min): >100^(*^) μM
Required concentration [μM] to achieve a reduction by ≧3log10 stages (decrease by 99.9%), irradiation at 10.5 J/cm^2, S. aureus ([2]; incubation 30 min): 10 μM

Cc1cc2nc3c(=O)[nH]c(=O)nc-3n(CCNCCN)c2cc1C.Cl.Cl [FL-27, (2-aminoethyl)-[2-(7,8-dimethyl-2,4-dioxo-3,4-dihydro-2H-benzo[g]pteridin-10-yl)ethyl]amine dihydrochloride]
Required concentration [μM] to achieve a reduction by ≧3log10 stages (decrease by 99.9%), irradiation at 10.5 J/cm^2, E. coli ([1]; incubation 30 min): 100 μM
Required concentration [μM] to achieve a reduction by ≧3log10 stages (decrease by 99.9%), irradiation at 10.5 J/cm^2, S. aureus ([2]; incubation 30 min): 10 μM

From patent US9745302B2 (TriOptoTec GmbH, priority 2011, dated 2017)
